Each structure is given as a SMILES string.

In one data set the test system is MCF7. The experiment in a line: Cytotoxicity against human MCF7 cells by MTT assay. Type of data set: functional, cell-based. For orientation: Formazan colour is commonly taken as a measure of viable cells.
The nature of data set [1]: Selectivity ratio of IC50 for mouse L929 cells to IC50 for human HeLa cells. Type of data set: toxicity. To be noted: L929 cells versus HeLa cells, read-out: Ratio IC50.
Data set [2] is described as follows: Selectivity ratio of IC50 for mouse L929 cells to IC50 for human MCF7 cells. The settings on record: L929 cells versus MCF7 cells, read-out: Ratio IC50. Type of data set: toxicity.
The nature of data set [3]: Selectivity ratio of IC50 for mouse L929 cells to IC50 for human A549 cells. It counts as toxicity. The settings on record: L929 cells versus A549 cells, read-out: Ratio IC50.
A further data set concerns HeLa. The experiment in a line: Cytotoxicity against human HeLa cells by MTT assay. Type of data set: functional, cell-based.
The next data set concerns A549. The experiment in a line: Cytotoxicity against human A549 cells by MTT assay.
The subject of another data set is L929. The experiment in a line: Cytotoxicity against mouse L929 cells by MTT assay.

As a reminder, the IC50 is the concentration that inhibits the measured activity by half. Low values mean higher potency, high ones lower potency. As for `Cn1c[n+](CC(=O)c2ccc(F)cc2)c2c1C(=O)c1ccccc1C2=O`, the IC50 with MCF7 is 0.34 µM; with HeLa, 3.1 µM; in the data set with A549 it was 1.5 µM; in the data set with L929, 18.2 µM. The selectivity ratio turned out to be 5.87 in data set [1], 53.5 in data set [2] and 12.1 in data set [3].

In the case of `COc1ccc(C(=O)C[n+]2cn(C)c3c2C(=O)c2ccccc2C3=O)cc1`, the IC50 amounted to 0.71 µM with MCF7, 1.6 µM in the data set with HeLa, 0.24 µM in the data set on A549 and 11.7 µM in the data set on L929. Further, the selectivity ratio is 7.31 in data set [1], 16.5 in data set [2] and 48.8 in data set [3].

For `CC(C)Cn1c[n+](CC(=O)c2ccc(Cl)cc2)c2c1C(=O)c1ccccc1C2=O`, the IC50 was 0.66 µM in the data set with MCF7, 3.8 µM in the data set on HeLa, 3.3 µM in the data set with A549 and 9.4 µM with L929. The values for the selectivity ratio in data set [1], in data set [2] and in data set [3] were 2.47, 14.2 and 2.85, respectively.

In the case of `CCn1c[n+](CC(=O)c2ccc([N+](=O)[O-])cc2)c2c1C(=O)c1ccccc1C2=O`, the IC50 in the data set on MCF7 stood at 16.7 µM; with HeLa, 8.8 µM; in the data set with A549, 2.1 µM; with L929, 27.7 µM. Also, the values for the selectivity ratio in data set [1], in data set [2] and in data set [3] were 3.15, 1.66 and 13.2, respectively.

For the compound `Cn1c[n+](CC(=O)c2ccccc2[N+](=O)[O-])c2c1C(=O)c1ccccc1C2=O`, the IC50 with MCF7 worked out at 18 µM; in the data set on HeLa it was 8.7 µM; in the data set on A549, 0.5 µM; in the data set with L929, 41.8 µM. For the same compound, the selectivity ratio in data set [1] amounted to 4.8; in data set [2] it was 2.32; in data set [3] it was 83.6.

With `Cn1c[n+](CC(=O)c2cccs2)c2c1C(=O)c1ccccc1C2=O`, the IC50 in the data set with MCF7 came to 0.94 µM; in the data set on HeLa, 7 µM; in the data set with A549, 0.3 µM; in the data set with L929, 22.9 µM. Further, the selectivity ratio in data set [1] turned out to be 3.27; in data set [2], 24.4; in data set [3], 76.3.

In the case of `Cc1ccc(C(=O)C[n+]2cn(C)c3c2C(=O)c2ccccc2C3=O)cc1`, the IC50 in the data set with MCF7 came to 0.6 µM; in the data set with HeLa, 3.5 µM; in the data set with A549, 0.16 µM; with L929 it was 14.7 µM. In addition, the values for the selectivity ratio in data set [1], in data set [2] and in data set [3] were 4.2, 24.5 and 91.9, respectively.

For the compound `COCCn1c[n+](CC(=O)c2ccc([N+](=O)[O-])cc2)c2c1C(=O)c1ccccc1C2=O`, the IC50 with MCF7 came out at 18.9 µM; in the data set on HeLa it was 7.8 µM; with A549 it was 2.9 µM; with L929, 41.3 µM. Moreover, the selectivity ratio in data set [1] came out at 5.29; in data set [2] it was 2.19; in data set [3], 14.2.

Turning to `CC(C)Cn1c[n+](CC(=O)c2ccco2)c2c1C(=O)c1ccccc1C2=O`, the IC50 came out at 0.32 µM with MCF7, 0.6 µM in the data set with HeLa, 0.37 µM with A549 and 8.5 µM in the data set on L929. Besides, the selectivity ratio in data set [1] was 14.2; in data set [2], 26.6; in data set [3], 23.

As to `Cn1c[n+](CC(=O)c2ccco2)c2c1C(=O)c1ccccc1C2=O`, the IC50 in the data set with MCF7 was found to be 1.4 µM; with HeLa it was 4.9 µM; with A549, 0.1 µM; in the data set on L929, 13.6 µM. Further, the figures for the selectivity ratio in data set [1], in data set [2] and in data set [3] were 2.78, 9.71 and 136, respectively.

`CC(C)Cn1c[n+](CC(=O)c2cccc([N+](=O)[O-])c2)c2c1C(=O)c1ccccc1C2=O`: the IC50 amounted to 2.8 µM with MCF7, 4.2 µM with HeLa, 2.9 µM in the data set on A549 and 16.2 µM in the data set with L929. Besides, the selectivity ratio in data set [1] amounted to 3.86; in data set [2], 5.79; in data set [3] it was 5.59.

As for `CC(C)Cn1c[n+](CC(=O)c2ccc([N+](=O)[O-])cc2)c2c1C(=O)c1ccccc1C2=O`, the IC50 was 2.3 µM in the data set with MCF7, 2.7 µM in the data set with HeLa, 1 µM in the data set on A549 and 4.6 µM with L929. Also, the figures for the selectivity ratio in data set [1], in data set [2] and in data set [3] were 1.7, 2 and 4.6, respectively.

For the compound `Cn1c[n+](CC(=O)c2ccc([N+](=O)[O-])cc2)c2c1C(=O)c1ccccc1C2=O`, the half-inhibitory concentration (IC50) with MCF7 came out at 12.1 µM; in the data set with HeLa, 10.1 µM; with A549 it was 3.6 µM; in the data set on L929, 53.1 µM. Further, the values for the selectivity ratio in data set [1], in data set [2] and in data set [3] were 5.26, 4.39 and 14.8, respectively.

For `Cn1c[n+](CC(=O)c2cccc([N+](=O)[O-])c2)c2c1C(=O)c1ccccc1C2=O`, the IC50 in the data set on MCF7 came to 12.9 µM; with HeLa, 7.6 µM; in the data set with A549, 2.2 µM; with L929 it was 36.9 µM. The selectivity ratio in data set [1] was 4.86; in data set [2], 2.86; in data set [3], 16.8.

On to `Cc1ccc(C(=O)C[n+]2cn(CC(C)C)c3c2C(=O)c2ccccc2C3=O)cc1`, for which the IC50 with MCF7 came to 0.56 µM; in the data set on HeLa, 1.8 µM; with A549, 0.35 µM; in the data set with L929, 4.8 µM. The selectivity ratio in data set [1] amounted to 2.67; in data set [2], 8.57; in data set [3] it was 13.7.

For the compound `CC(C)Cn1c[n+](CC(=O)c2ccc(C(F)(F)F)cc2)c2c1C(=O)c1ccccc1C2=O`, the 50% inhibitory concentration (IC50) in the data set on MCF7 amounted to 7.6 µM; in the data set on HeLa, 9.2 µM; in the data set on A549, 7.8 µM; with L929 it was 26.3 µM. The selectivity ratio in data set [1] turned out to be 2.86; in data set [2], 3.46; in data set [3], 3.37.

Take `Cc1cc(C)c(-n2c[n+](CC(=O)c3ccc([N+](=O)[O-])cc3)c3c2C(=O)c2ccccc2C3=O)c(C)c1`: the IC50 in the data set with MCF7 is 12.3 µM; in the data set with HeLa, 41.7 µM; with A549, 6.6 µM; in the data set on L929 it was 24.5 µM. Besides, the figures for the selectivity ratio in data set [1], in data set [2] and in data set [3] were 0.59, 1.99 and 3.71, respectively.

As for `Cn1c[n+](CC(=O)c2ccc3ccccc3c2)c2c1C(=O)c1ccccc1C2=O`, the IC50 came to 10.5 µM in the data set with MCF7, 6.1 µM with HeLa, 1.4 µM in the data set with A549 and 19 µM with L929. For the same compound, the selectivity ratio amounted to 3.11 in data set [1], 1.81 in data set [2] and 13.6 in data set [3].

Consider `O=C(C[n+]1cn(C2CC2)c2c1C(=O)c1ccccc1C2=O)c1ccc([N+](=O)[O-])cc1`, for which the IC50 with MCF7 amounted to 60.4 µM; with HeLa, 22.2 µM; with A549 it was 12.3 µM; in the data set on L929, 6.1 µM. Further, the selectivity ratio in data set [1] came out at 0.27; in data set [2] it was 0.1; in data set [3] it was 0.5.

Turning to `CC(C)c1cccc(C(C)C)c1-n1c[n+](CC(=O)c2ccc([N+](=O)[O-])cc2)c2c1C(=O)c1ccccc1C2=O`, the IC50 is 47.9 µM in the data set with MCF7, greater than 100 µM in the data set with HeLa, 26.7 µM with A549 and 46.5 µM in the data set with L929. Moreover, the figures for the selectivity ratio in data set [1], in data set [2] and in data set [3] were less than 0.47, 0.97 and 1.74, respectively.

With `CC(C)Cn1c[n+](CC(=O)c2ccc(F)cc2)c2c1C(=O)c1ccccc1C2=O`, the IC50 with MCF7 was 0.75 µM; with HeLa it was 0.41 µM; in the data set on A549, 0.2 µM; in the data set with L929 it was 16.4 µM. In addition, the selectivity ratio in data set [1] was found to be 40; in data set [2], 21.9; in data set [3] it was 82.

Turning to `CCCCn1c[n+](CC(=O)c2ccc([N+](=O)[O-])cc2)c2c1C(=O)c1ccccc1C2=O`, the IC50 in the data set with MCF7 came out at 6.2 µM; in the data set on HeLa, 4.4 µM; with A549, 2.5 µM; in the data set on L929 it was 20 µM. Besides, the selectivity ratio in data set [1] came out at 4.55; in data set [2] it was 3.23; in data set [3] it was 8.

`CC(C)Cn1c[n+](CC(=O)N(C)C)c2c1C(=O)c1ccccc1C2=O`: the IC50 stood at 65.6 µM with MCF7, 12.8 µM in the data set on HeLa, 0.4 µM in the data set on A549 and 58.8 µM with L929. The selectivity ratio in data set [1] was determined as 4.59; in data set [2], 0.9; in data set [3], 147.

`CCCn1c[n+](CC(=O)c2ccc([N+](=O)[O-])cc2)c2c1C(=O)c1ccccc1C2=O`: the IC50 was 8.3 µM with MCF7, 8.4 µM in the data set with HeLa, 3 µM in the data set on A549 and 24.2 µM in the data set with L929. For the same compound, the selectivity ratio in data set [1] is 2.88; in data set [2] it was 2.92; in data set [3] it was 8.07.

Turning to `CC(C)Cn1c[n+](CC(=O)c2ccc(Br)cc2)c2c1C(=O)c1ccccc1C2=O`, the IC50 stood at 0.69 µM in the data set with MCF7, 2.7 µM in the data set with HeLa, 2.4 µM in the data set with A549 and 15.5 µM with L929. The selectivity ratio turned out to be 5.74 in data set [1], 22.5 in data set [2] and 6.46 in data set [3].

Consider `COc1ccc(C(=O)C[n+]2cn(CC(C)C)c3c2C(=O)c2ccccc2C3=O)cc1`, for which the IC50 turned out to be 0.31 µM in the data set with MCF7, 0.08 µM in the data set with HeLa, 0.19 µM in the data set with A549 and 2.3 µM in the data set on L929. Further, the results for the selectivity ratio in data set [1], in data set [2] and in data set [3] were 28.8, 7.42 and 12.1, respectively.

For `Cn1c[n+](CC(=O)C(C)(C)C)c2c1C(=O)c1ccccc1C2=O`, the IC50 with MCF7 was found to be 7.6 µM; in the data set with HeLa it was 5.8 µM; in the data set with A549, 2.4 µM; with L929 it was 27.4 µM. Besides, the selectivity ratio in data set [1] amounted to 4.72; in data set [2], 3.61; in data set [3], 11.4.
